The text below walks through data of PMC2917377 (Cytometry. Part A : the journal of the International …, 2009).

Assay [1] addresses FPR. The conditions noted are these: read-out: Kd for FPR; cited from earlier work.
Assay [2] concerns FPRL1. The note with it: cited from earlier work.
In assay [3] the target is formyl peptide receptor-like 1. The conditions noted are these: cited from earlier work.
Assay [4] concerns the target WKYMVm. Briefly: competition.
The target in assay [5] is T1, WKGMVm.
T1 chain: WKGMV[dM]
Briefly: competition flow cytometry.

For assay [6], the target named is T2, WKRMVm.
T2 chain: WKRMV[dM]
Kind of assay: competition flow cytometry. For orientation: A flow cytometer gives signals particle by particle.

Non-standard residues stand in square brackets, D forms with d. No end group written: not given here. *: point of attachment. Nle = CCCC[C@H](N)C(=O)O; For = O=C*

As usually defined, the Kd is the concentration at which binding is half-saturated. As a reminder, the EC50 is the concentration that produces a half-maximal response. By IC50 is commonly meant the concentration that gives 50% inhibition.

Regarding “N-formyl -Met-Leu-Phe-Lys-fluorescein (For-MLFK(fluorescein)) [fMLFK-FITC]”, the Kd in assay [1] is 3 nM. Also, in assay [2], the “Binding to FPRL1” value is listed as “does not bind”.
In the case of W[Nle]YM [WNleYM], the EC50 in assay [3] is 5.34 nM.

B1: FPRL1 (protein)
chain: METNFSTPLNEYEEVSYESAGYTVLRILPLVVLGVTFVLGVLGNGLVIWVAGFRMTRTVTTICYLNLALADFSFTATLPFLIVSMAMGEKWPFGWFLCKLIHIVVDINLFGSVFLIGFIALDRCICVLHPVWAQNHRTVSLAMKVIVGPWILALVLTLPVFLFLTTVTIPNGDTYCTFNFASWGGTPEERLKVAITMLTARGIIRFVIGFSLPMSIVAICYGLIAAKIHKKGMIKSSRPLRVLTAVVASFFICWFPFQLVALLGTVWLKEMLFYGKYKIIDILVNPTSSLAFFNSCLNPMLYVFVGQDFRERLIHSLPTSLERALSEDSAPTNDTAANSASPPAETELQAM
With B1, the IC50 in assay [4] turned out to be 1.8 nM; in assay [5] it was 176 nM; in assay [6], 705 nM.
